Measured values taken from US20240238268A1, “TREATMENTS AND METHODS FOR TREATING ALZHEIMER'S DISEASE” (Board of Supervisors of Louisiana State University and …, priority 2021, published 2024).

Tested on: NOTCH1
Test: NOTCH1 protein level in brain, capillary-based immunoassay
Format: in vivo, mouse
Conditions: aged 3xTg-AD female mice; TP-064 30 mg/kg, 7 days, IP or AAV knockdown
Description: NOTCH1 protein level in cortex, FIG. 13A, and hippocampus, FIG. 13B, was decreased in aged 3xTg-AD female mice v. male counterparts. Treatment with specific PRMT4 specific inhibitor (TP-064, 30 mg/kg, 7 days, IP) or AAV knockdown of PRMT4 enhanced NOTCH1 protein level in cortex, […], and hippocampus, […], in aged 3xTg-AD female mice. Relative NOTCH1 protein (˜110 kDa) level was measured by capillary-based immunoassay and normalized to total protein. * p<0.05 v. control male mice evaluated by unpaired t-test in FIGS. 13A and 13B. * p<0.05 compared to C57, #p<0.05 compared to 3xTg-AD+TP-064, $p<0.05 compared to 3xTg-AD+AAV, evaluated by one-way ANOVA with Tukey's post-hoc analyses in FIGS. 13C and 13D.
FIGS. 16A-16G show NOTCH1 inhibition (via crenigacestat) decreased ZO-1 and occluding and AAV knockdown of PRMT4 enhanced ZO-1 and occludin. […] C57 female mice. FIGS. 16B and 16C show crenigacestat (10 mg/kg, IP, 7 days) reduced NOTCH1 (110 kDa) protein level in the cortex and hippocampus of aged C57 female mice. AAV knockdown of PRMT4 increased NOTCH1 protein level. FIGS. 16D-16G show ZO-1 (220 kDa), and occludin (60 kDa) tight junctional proteins were decreased in the cortex and hippocampus in presence of NOTCH1 inhibitor in C57. PRMT4-AAV increased the expression of ZO-1 and occludin in aged 3xTg-AD female mice. Protein level was measured by capillary-based immunoassay and normalized to total protein. * p<0.05 compared to C57, #p<0.05 compared to 3xTg-AD, $p<0.05 compared to 3xTg-AD+AAV as evaluated by one-way ANOVA with Tukey's post-hoc analyses.
Capillary-phoresis immunoassay via ProteinSimple®: Quantification of all protein targets was achieved using Simple Western analysis in a Jess™ apparatus per the manufacturer's protocol (ProteinSimple, Bio-techne, Minneapolis, MN). […] Following homogenization and centrifugation (10,000×g, 5 min, 4° C.), protein concentration was determined in tissue protein supernatant samples using DC Protein Assay (Cat. No. 5000112, Bio-Rad Laboratories, Hercules, California) according to manufacturer instructions. […] Antibody diluent (ProteinSimple, Bio-techne, Minneapolis, MN) was used for all antibody dilutions as follows: PRMT4 (1:50, RRID: AB_2068436), PRMT6 (1:100, Cell Signaling Technology cat. 14641), eNOS (1:200, RRID: AB_10850618), nNOS (1:100, RRID: AB_2152488), iNOS (1:100, RRID: AB_10000625), DDAH2 (1:50, RRID: AB_2640442) Antibodies were detected using HRP-conjugated secondary anti-rabbit, and -mouse. Relative protein levels were calculated by measuring the area under the peak of a chemiluminescent chromatogram and normalized to total capillary chemiluminescence for a given sample. […]

## CNCCN1CCC(c2cc(CN(C)C(=O)c3cccc(Oc4ccccc4)c3)ccn2)CC1 [TP-064, N-Methyl-N-((2-(1-(2-(methylamino)ethyl)piperidin-4-yl)pyridin-4-yl)methyl)-3-phenoxybenzamide]
  NOTCH1 protein level in cortex: enhanced
  NOTCH1 protein level in hippocampus: enhanced
